“Also recorded” adds a separate entry of the source.
Legend:
AT4 receptor [1] = target: T1, AT4 receptor (Bos taurus, UniProt F1N1Q8); assay: 125I-AIV binding and competition, solubilized bovine adrenal cortical receptor
T1 sequence (F1N1Q8 1-1022): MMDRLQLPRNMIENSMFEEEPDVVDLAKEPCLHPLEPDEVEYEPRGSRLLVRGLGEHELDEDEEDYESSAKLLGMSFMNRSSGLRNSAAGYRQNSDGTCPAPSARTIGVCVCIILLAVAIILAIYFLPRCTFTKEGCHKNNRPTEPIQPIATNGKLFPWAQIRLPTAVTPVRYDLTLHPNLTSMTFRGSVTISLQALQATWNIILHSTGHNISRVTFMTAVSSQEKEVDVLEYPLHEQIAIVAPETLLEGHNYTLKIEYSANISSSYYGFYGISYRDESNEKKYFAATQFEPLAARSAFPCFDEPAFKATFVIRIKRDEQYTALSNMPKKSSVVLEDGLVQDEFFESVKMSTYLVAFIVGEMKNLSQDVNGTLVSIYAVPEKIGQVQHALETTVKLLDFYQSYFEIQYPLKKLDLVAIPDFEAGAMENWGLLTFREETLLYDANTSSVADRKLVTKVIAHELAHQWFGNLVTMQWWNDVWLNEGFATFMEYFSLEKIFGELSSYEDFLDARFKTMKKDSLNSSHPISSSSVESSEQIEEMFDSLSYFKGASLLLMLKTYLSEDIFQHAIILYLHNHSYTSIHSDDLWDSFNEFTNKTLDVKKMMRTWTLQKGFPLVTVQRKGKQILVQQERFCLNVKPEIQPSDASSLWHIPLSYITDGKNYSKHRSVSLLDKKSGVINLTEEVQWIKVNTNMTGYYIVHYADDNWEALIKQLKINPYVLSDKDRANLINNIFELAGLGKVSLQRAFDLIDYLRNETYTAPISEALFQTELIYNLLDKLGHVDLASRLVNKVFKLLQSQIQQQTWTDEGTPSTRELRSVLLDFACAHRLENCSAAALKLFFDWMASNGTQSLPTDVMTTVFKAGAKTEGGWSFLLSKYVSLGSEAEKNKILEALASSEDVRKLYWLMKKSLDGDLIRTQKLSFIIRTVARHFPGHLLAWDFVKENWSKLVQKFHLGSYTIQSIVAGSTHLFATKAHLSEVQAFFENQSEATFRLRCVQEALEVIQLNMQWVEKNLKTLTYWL

[2] = arterial and venous blood in man; cited from earlier work
[3] = target: T2, AT1 receptor (AII receptor) (Bos taurus, UniProt P25104); format: binding, bovine; conditions: competition
T2 construct: from tissue; host or cells: bovine adrenal cortex membranes
T2 sequence (P25104 1-359): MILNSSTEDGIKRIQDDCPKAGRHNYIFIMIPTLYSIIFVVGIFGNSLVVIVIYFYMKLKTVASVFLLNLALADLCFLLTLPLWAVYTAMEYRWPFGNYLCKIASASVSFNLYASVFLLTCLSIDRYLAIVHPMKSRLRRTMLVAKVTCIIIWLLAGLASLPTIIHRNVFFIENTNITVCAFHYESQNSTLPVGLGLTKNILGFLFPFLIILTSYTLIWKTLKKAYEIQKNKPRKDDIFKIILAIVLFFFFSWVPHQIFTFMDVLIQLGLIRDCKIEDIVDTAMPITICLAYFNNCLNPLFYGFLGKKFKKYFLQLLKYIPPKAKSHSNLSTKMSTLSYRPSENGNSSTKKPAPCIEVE

AT4 receptor [4] = format: binding, rat; conditions: brain, heart, kidney, aorta, lung, liver, cultured smooth muscle cells
Protocol: A second major approach to defining separate and distinct binding sites was to examine their relative tissue and species distribution (Table 8).
*25 μg of membrane protein was incubated with 500,000 cpm of label.
Specific binding was defined as total […]
At this time, the significance of this finding is uncertain.

AT4 receptor [5] = target: T1, AT4 receptor; assay: 125I-AIV binding and competition, bovine adrenal cortical membranes
rats = assay: Passive avoidance conditioning after icv injection; format: in vivo, rat
bovine endothelial cells = assay: Endothelial cell growth (thymidine incorporation) and EDRF production; format: cell-based
Protocol: Cells were grown at 37° C. in 35 mm culture plates […] under 5% CO2 /95% air in Dulbecco's Modified Eagle's Medium (DMEM) supplemented with 5 μg/ml insulin and 10% (v/v) newborn bovine serum (NBBS). […] Negative controls were also included using ethidium bromide (1 mM). The cells were harvested at various times, and cellular lysates were prepared for scintillation counting by lysing and washing the cells on glass fiber filters.
Bovine aortic endothelial cells were grown at 37° C. in 35 mm culture plates under 5% CO2 in air in Dulbecco's Modified Eagle's Medium (DMEM) supplemented with 5 μg/ml insulin and 10% (v/v) newborn bovine serum (NBBS). The medium was aspirated 10-12 hours after seeding and replaced with serum-free medium. The medium was again aspirated 10-12 hours later and replaced with either test or control medium. Control medium was DMEM with 5 µg/ml insulin and 2%, 5%, or 10% (v/v) NBBS as indicated. […] The medium was changed every 48 h (i.e., with supportive DMEM medium for the remainder of the experiment).
As an adjunct to the determination of cell numbers, thymidine incorporation was measured. […] This material was then filtered under vacuum through 2.4 cm glass fiber filters (GF/A, Whatman), and the filters were washed twice with 10 ml of absolute ethanol and assayed for radioactivity by scintillation counting.

cardiocytes = assay: Hypertrophic action of AII on cardiocytes; format: cell-based
rat kidney = assay: Renal cortical blood flow (laser doppler) and arterial pressure after infusion into the renal artery; format: in vivo
AT4 receptor [6] = target: T1, AT4 receptor; assay: 125I-AIV binding, aortic endothelial cell (BAEC) membranes; design: species or system bovine; conditions: 0.6 nM 125I-AIV
AT1 receptors = assay: GTPγS effect on 125I-AII binding, rat vascular smooth muscle cell (RVSMC) membranes; conditions: 0.5 nM 125I-AII

| Structure (SMILES) | off-rate t1/2 (AT4 receptor [1]) [h] | half-lives [2] [min] | Ki [3] [nM] | binding in rat tissues (in words) (AT4 receptor [4]) | Bmax (AT4 receptor [5]) | passive avoidance latency / cognitive effect (in words) (rats) | EDRF production (bovine endothelial cells) | endothelial cell proliferation (thymidine incorporation) (bovine endothelial cells) | effect on hypertrophic action of AII (cardiocytes) | effect on renal blood flow (in words) (rat kidney; infusion into renal artery) | effect of preinfusion on blood flow response to another ligand (rat kidney; rat, in vivo) | agonist / antagonist activity (in words) (rat kidney; renal blood flow response compared to AIV) | effect on 125I-AIV binding (AT4 receptor [6]) | effect on 125I-AII binding (AT1 receptors) |
| --- | --- | --- | --- | --- | --- | --- | --- | --- | --- | --- | --- | --- | --- | --- |
| CC[C@H](C)[C@H](NC(=O)[C@H](Cc1ccc(O)cc1)NC(=O)[C@@H](N)C(C)C)C(=O)N[C@@H](Cc1cnc[nH]1)C(=O)N1CCC[C@H]1C(=O)N[C@@H](Cc1ccccc1)C(=O)O [AIV, Val1 Tyr2 Ile3 His4 Pro5 Phe6] | 4.873 | 1.9 | > 1000 | not been possible to demonstrate binding | 3.82±1.12 | significantly elevated latency times | stimulating production of endothelial cell relaxing factor (EDRF) | enhancing cellular proliferation | antagonizes the hypertrophic action of AII | profound and long-lasting increase in blood flow; also recorded: equally dramatic increase in flow; also recorded: dramatically increase renal blood flow and urine flow in a dose-dependent fashion | completely blocked the constrictive action of AII | full agnoistic activity |  |  |
| Nc1nc2c(ncn2[C@@H]2O[C@H](COP(=O)(O)OP(=O)(O)OP(O)(O)=S)[C@@H](O)[C@H]2O)c(=O)[nH]1 [GTPγS] |  |  |  |  |  |  |  |  |  |  |  |  | no effect; also recorded: did not inhibit (or alter) binding | inhibited |
